According to US20040180835A1, “Use of the protein uk114 or of fragments thereof for the treatment and prevention of the endotoxic shock” (priority 2001, published 2004):
Marks after values point to notes of the source that are not given here. No end group written: not given here.

System: LPS-induced endotoxic shock
Test: LPS-induced endotoxic shock in mice (death rate after LPS injection)
Assay type: in vivo, Balb/c mice
Description: The pharmacological activity of UK 114 and of the peptides of the invention has been studied on the murine model of LPS-induced shock, as reported in the following Example.
Balb/c mice 6-8 weeks old were treated i.p. with 30 mcg of UK114 in 100 μl PBS (group B) or with 4 mcg of peptide 76-90 (group C) 24 hours and one hour before the administration of 500 mcg of LPS. A control group of mice (group A) was tretated with 100 μl PBS according to the same protocol used for groups C and B.
A further group was treated only with UK114 one hour after the administration of LPS (group D). This experimental approach more closely resembles the clinical practice where it is difficult to intervene prophylactically.
The death rate of the animals in each group was recorded every 12 hours up to the third day from the LPS injection.

VVKATVLLADINDFS [pep. 76-90]
Death-rate (at 72 h) (prophylactic i.p. treatment 24 hours and one hour before 500 mcg LPS, UK114 30 mcg, peptide 76-90 4 mcg, 50 mice per group, PBS control 40/50 (80%)): 25/50(50%)***
Protection from the lethal effects of LPS (prophylactic treatment, 72 hours post LPS, vs PBS control group): clearly protected from the lethal effects of LPS
